From patent publication EP0435693B1, “Pharmaceutical compositions containing 3-oxygermylpropionic acid polymers for inhibiting the degeneration of cells” (SANWA KAGAKU KENKYUSHO CO., LTD., priority 1989, dated 1991)

What was measured:
SD rats and mice = assay: Acute toxicity test, general symptoms; format: in vivo
Text: With (a) the 3-oxygermylpropionic acid according to this invention (hereinafter called SK-818) and (b) the composition of Preparation Ex. 1, SD rats and mice were subjected to acute and subacute (chronic) toxicity tests in conventional manner. (Groups of animals, 8-10 per group, were used for experimentation).
Between (a) SK-818 and (b) the composition of Preparation Ex. 1 there was no significant difference in acute toxicity.

Type B chronic hepatitis = assay: Clinical test for Type B chronic hepatitis against placebo; format: in vivo, patients
Method: The efficacy of SK-818 against Type B chronic hepatitis was examined, using a placebo as control.
The subjects were patients who had been diagnosed by biopsy as chronic hepatitis before at most one year in principle, were positive to HBe antigens and had Type B chronic hepatitis in need of treatment.
• (i) The drug under test was a capsule containing 10 mg of SK-818. • (ii) The control consisted only of lactose (a placebo).
The subjects followed the standard prescription of three capsules a day and one capsule each meal over 16 weeks in principle.
The general examination of the functioning of the livers and blood and the measurement of HBe antigens and antibodies were all carried out by the Virus Hepatitis Research Foundation.

MRL/1 masculine mice = assay: Prevention of spontaneous nephritis of MRL/1 mice; format: in vivo; parameters: Blood-urinary nitrogen levels, BUN: unit not given here; details: for Blood-urinary nitrogen levels, BUN: day following the final administration
Method: The action of SK-818 on preventing the development of spontaneous nephritis of MRL/1 mice (or an impairment of the functioning of the kidney asaociated with aging) was examined.
Given amounts (0.1 mg/kg, 1.0 mg/kg and 10.0 mg/kg a day) of SK-818, in the form of a mixture of the composition of Preparation Ex. 1 with feed, were administered orally MRL/1 masculine mice of six-week age (16 for each group) twice a week over 12 weeks. In the meantime, urinary protein was measured once a week; urinary protein levels exceeding 100 mg/dl were taken as positive. Examination was then made of how many animals became positive at the respective week-ages. Moreover, blood-urinary nitrogen levels were determined on the day following the final administration to make serological/physiological and pathological estimations of the action of SK-818 on nephritis.
The urinary protein and blood-urinary nitrogen levels were measured with Protein Pre-test (made by Wako Junyaku K.K.) and Urinary Nitrogen B-Test according to the urease/indophenol method (made by Wako Junyaku K.K.), respectively.

ddy masculine mouse = assay: Amnesia induced by carbon dioxide, passive avoidance in bright/dark box; format: in vivo; details: Group B: SK-818 + Foot Shocks + CO₂ Gas, 10.0 mg/kg/day orally from 3 days before
Method: A ddy masculine mouse was encaged in a […] of a testing box (comprising bright and dark chambers, each measuring 15.0 x 17.5 x 18.5 cm and provided with an inlet/outlet combination of 6.0 x 6.0 cm, and the time which it took the animal to walk into the dark chamber (the reaction potential time during acquisition, hereinafter referred to as A.T.) was then measured. From just after the animal walked into the dark chamber, foot shocks of 2.5 mA were continuously applied to the animal through a floor grid with a shock generator scrambler, made by Astech Co., Ltd., until the animal walked into the bright chamber. Immediately after the acquisition trial, the animal was encaged in a desiccator, and 15 l/min of CO₂ gas were injected into the desiccator for 40 to 45 seconds for suffocation. After the animal was removed from the desiccator, artificial aspiration was immediately tried thereon. The animal was then put back in a home cage.
After 24 hours of the acquisition trial, the animal was again encaged in the bright chamber of the testing box to measure the time which it took the animal to walk into the dark chamber (or the reaction potential time during the retention trial, hereinafter referred to as R.T.). SK-818, in the form of a mixture with feed, had been administered orally to the animal from 3 days before at a dose of 10.0 mg/kg/day.

[1] = SK-818 against Placebo, time points with significance
[2] = determined by physicians, Total 95

3-oxygermylpropionic acid [SK-818]
general symptoms (SD rats and mice): general symptoms of tranquilization, diarrhoea, vomiting and typhlectasis
GOT (Type B chronic hepatitis; 4W): ↓ *
GPT (Type B chronic hepatitis; 4W): ↓ *
HBe antibodies (RIA%) (Type B chronic hepatitis; 4W): ↑ *
HBe antigens (EIA) log (Type B chronic hepatitis; 4W): ↓***
LDH (mu/ml) (Type B chronic hepatitis; 4W): ↓ +
Total Bilirubin (mg/dl) (Type B chronic hepatitis; 4W): ↓ *
AIP (KA) (Type B chronic hepatitis; 8W): ↓ +
Cholinesterase (ΔPH) (Type B chronic hepatitis; 8W): ↑ *
GOT (Type B chronic hepatitis; 8W): ↓ +
GPT (Type B chronic hepatitis; 8W): ↓**
HBe antibodies (RIA%) (Type B chronic hepatitis; 8W): ↑ *
HBe antigens (EIA) log (Type B chronic hepatitis; 8W): ↓ **
LDH (mu/ml) (Type B chronic hepatitis; 8W): ↓ +
Total Cholesterol (mg/dl) (Type B chronic hepatitis; 8W): ↑ *
AIP (KA) (Type B chronic hepatitis; 12W): ↓ +
Cholinesterase (ΔPH) (Type B chronic hepatitis; 12W): ↑ *
GOT (Type B chronic hepatitis; 12W): ↓***
GPT (Type B chronic hepatitis; 12W): ↓***
HBe antibodies (RIA%) (Type B chronic hepatitis; 12W): ↑ **
HBe antigens (EIA) log (Type B chronic hepatitis; 12W): ↓***
LDH (mu/ml) (Type B chronic hepatitis; 12W): ↓ *
Serum Albumin (g/dl) (Type B chronic hepatitis; 12W): ↑ *
TTT (Type B chronic hepatitis; 12W): ↓**
Total Cholesterol (mg/dl) (Type B chronic hepatitis; 12W): ↑ *
ZTT (Type B chronic hepatitis; 12W): ↓**
γ-GTP (mu/ml) (Type B chronic hepatitis; 12W): ↓**
γ-Globulin (g/dl) (Type B chronic hepatitis; 12W): ↓**
GOT (Type B chronic hepatitis; 16W): ↓***
GPT (Type B chronic hepatitis; 16W): ↓***
HBe antibodies (RIA%) (Type B chronic hepatitis; 16W): ↑ *
HBe antigens (EIA) log (Type B chronic hepatitis; 16W): ↓***
Serum Albumin (g/dl) (Type B chronic hepatitis; 16W): ↑ +
TTT (Type B chronic hepatitis; 16W): ↓***
Total Cholesterol (mg/dl) (Type B chronic hepatitis; 16W): ↑ *
ZTT (Type B chronic hepatitis; 16W): ↓**
γ-GTP (mu/ml) (Type B chronic hepatitis; 16W): ↓ **
γ-Globulin (g/dl) (Type B chronic hepatitis; 16W): ↓***
Cholinesterase (ΔPH) (Type B chronic hepatitis; Af4W (after 4 weeks)): ↑ *
GOT (Type B chronic hepatitis; Af4W (after 4 weeks)): ↓ **
GPT (Type B chronic hepatitis; Af4W (after 4 weeks)): ↓ **
HBe antibodies (RIA%) (Type B chronic hepatitis; Af4W (after 4 weeks)): ↑ *
HBe antigens (EIA) log (Type B chronic hepatitis; Af4W (after 4 weeks)): ↓***
TTT (Type B chronic hepatitis; Af4W (after 4 weeks)): ↓***
ZTT (Type B chronic hepatitis; Af4W (after 4 weeks)): ↓**
γ-GTP (mu/ml) (Type B chronic hepatitis; Af4W (after 4 weeks)): ↓ **
γ-Globulin (g/dl) (Type B chronic hepatitis; Af4W (after 4 weeks)): ↓***
Cholinesterase (ΔPH) (Type B chronic hepatitis; Af8W (after 8 weeks)): ↑**
GOT (Type B chronic hepatitis; Af8W (after 8 weeks)): ↓ **
GPT (Type B chronic hepatitis; Af8W (after 8 weeks)): ↓ **
HBe antibodies (RIA%) (Type B chronic hepatitis; Af8W (after 8 weeks)): ↑ **
HBe antigens (EIA) log (Type B chronic hepatitis; Af8W (after 8 weeks)): ↓***
TTT (Type B chronic hepatitis; Af8W (after 8 weeks)): ↓ *
Total Cholesterol (mg/dl) (Type B chronic hepatitis; Af8W (after 8 weeks)): ↑*
ZTT (Type B chronic hepatitis; Af8W (after 8 weeks)): ↓ *
γ-GTP (mu/ml) (Type B chronic hepatitis; Af8W (after 8 weeks)): ↓ *
γ-Globulin (g/dl) (Type B chronic hepatitis; Af8W (after 8 weeks)): ↓ *
Cholinesterase (ΔPH), Differences between groups (Type B chronic hepatitis; [1]): 4w* 12W** Af4W* 8w** 16w* Af8w+
GPT, Differences between groups (Type B chronic hepatitis; [1]): 8w* 12w** 16W* Af4w*
HBe antibodies (RIA%), Differences between groups (Type B chronic hepatitis; [1]): 4W* 12W* 16W* Af8w+
HBe antigens (EIA) log, Differences between groups (Type B chronic hepatitis; [1]): 4W** 12W* 16W* Af4w*
TTT, Differences between groups (Type B chronic hepatitis; [1]): Af4w+
Total Cholesterol (mg/dl), Differences between groups (Type B chronic hepatitis; [1]): 8W* 16W** 12W** Af8w*
γ-Globulin (g/dl), Differences between groups (Type B chronic hepatitis; [1]): 12W+ Af4w* 16w+ Af8w+
Rate of Amelioration, Slightly ameliorated or more (Type B chronic hepatitis; determined by physicians, P=0.0011 against placebo): 57.9%
Rate of Amelioration, Ameliorated to some or higher extent (Type B chronic hepatitis; determined by physicians, P=0.0114 against placebo): 36.8
Degree of Amelioration: Ameliorated to some extent (number of cases) (Type B chronic hepatitis; [2]): 23
Degree of Amelioration: Less aggravated (number of cases) (Type B chronic hepatitis; [2]): 5
Degree of Amelioration: Nochange (number of cases) (Type B chronic hepatitis; [2]): 31
Degree of Amelioration: Slightly ameliorated (number of cases) (Type B chronic hepatitis; [2]): 20
Degree of Amelioration: aggravated (number of cases) (Type B chronic hepatitis; [2]): 4
Degree of Amelioration: seriously aggravated (number of cases) (Type B chronic hepatitis; [2]): 0
Degree of Amelioration: Remarkably ameliorated (number of cases) (Type B chronic hepatitis; determined by physicians, Total 95, 10 mg capsule three a day over 16 weeks): 12
Number of animals with positive urinary protein levels (MRL/1 masculine mice; 0.1 mg/kg, 16 week-age, positive = exceeding 100 mg/dl): 4/15
Number of animals with positive urinary protein levels (MRL/1 masculine mice; 0.1 mg/kg, 17 week-age): 7/15
Number of animals with positive urinary protein levels (MRL/1 masculine mice; 0.1 mg/kg, 18 week-age): 10/15
Blood-urinary nitrogen levels, BUN (MRL/1 masculine mice; 0.1 mg/kg): 32.2±1.6
Number of animals with positive urinary protein levels (MRL/1 masculine mice; 1 mg/kg, 16 week-age): 4/15
Number of animals with positive urinary protein levels (MRL/1 masculine mice; 1 mg/kg, 17 week-age): 6/15
Number of animals with positive urinary protein levels (MRL/1 masculine mice; 1 mg/kg, 18 week-age): 8/15
Blood-urinary nitrogen levels, BUN (MRL/1 masculine mice; 1 mg/kg): 35.5±3.3
Number of animals with positive urinary protein levels (MRL/1 masculine mice; 10 mg/kg, 16 week-age): 2/15
Number of animals with positive urinary protein levels (MRL/1 masculine mice; 10 mg/kg, 17 week-age): 4/15
Number of animals with positive urinary protein levels (MRL/1 masculine mice; 10 mg/kg, 18 week-age): 8/15
Blood-urinary nitrogen levels, BUN (MRL/1 masculine mice; 10 mg/kg): 29.3±1.7
increase in the blood-urinary nitrogen levels (MRL/1 masculine mice; At 10 mg/kg): significantly inhibited
increase in the urinary protein levels (MRL/1 masculine mice; At 10 mg/kg): remarkably inhibited
glomeruli that become more morbid (MRL/1 masculine mice; groups medicated with SK-818, control group 57 %): 23-34%
A.T. (reaction potential time during acquisition) (ddy masculine mouse): 48.5 ± 9.1 s
R.T. (reaction potential time during the retention trial) (ddy masculine mouse; 24 hours after acquisition): 276.5 ± 19.3 s
